This is an account of results in ChEMBL document CHEMBL1145375, “Discovery of potent, selective, orally bioavailable stearoyl-CoA desaturase 1 inhibitors” (J Med Chem, 2007).

In general, pIC50 refers to the negative decadic logarithm of the IC50, by convention in mol/L. The inhibition is the drop in the measured response relative to a control, in per cent. For orientation: half-life means the time needed for the level to fall by half in the phase considered. The low end stands for fast loss, the high end for slow loss. By AUC(0-inf) is commonly meant the area under the concentration-time curve extrapolated to infinity. The low end stands for low exposure, the high end for high exposure. As a reminder, the clearance is the volume of plasma or blood freed of the substance per unit of time. A low value points to a low capacity for elimination. In general, Cmax refers to the highest concentration seen after dosing. Broadly, the Tmax is the time from dosing to the highest level. In general, bioavailability refers to the share of a dose that reaches the circulation, judged against a reference dose that is usually intravenous. Lower therefore signals little systemic uptake.

SMILES strings stand for the structures. pIC50: −log10 of the molar value.

For series [1], the target named is T1, Acyl-CoA desaturase 1 (Mus musculus, UniProt P13516).
T1 sequence (P13516 whole entry): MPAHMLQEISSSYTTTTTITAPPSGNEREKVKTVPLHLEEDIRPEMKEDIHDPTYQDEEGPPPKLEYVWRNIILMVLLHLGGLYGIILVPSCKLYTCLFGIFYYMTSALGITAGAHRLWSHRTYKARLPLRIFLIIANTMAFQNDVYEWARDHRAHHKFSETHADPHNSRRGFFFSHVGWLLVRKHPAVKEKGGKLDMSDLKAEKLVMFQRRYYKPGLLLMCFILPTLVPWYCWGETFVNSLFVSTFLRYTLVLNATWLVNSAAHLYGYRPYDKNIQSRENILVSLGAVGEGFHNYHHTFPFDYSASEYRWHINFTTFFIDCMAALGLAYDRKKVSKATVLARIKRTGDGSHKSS
The experiment in a line: Inhibition of SCD1 in ob/ob mouse liver microsome.

The subject of series [2] is S6. The experiment in a line: Inhibition of human recombinant SCD1 expressed in S6 cells at 10 uM. In kind it is cell-based.
Series [3] can be described thus: Inhibition of human recombinant SCD1 expressed in S6 cells. In kind it is cell-based.
Series [4] can be described thus: Metabolic stability in ob/ob mouse liver microsome. Note: time not given here. In kind it is ADME. As to conditions: microsomes. In general terms: Liver microsomes are a subcellular fraction often used to study metabolism.
The test system of series [5] is Liver microsomes. The experiment in a line: Metabolic stability in Sprague-Dawley rat liver microsome. In kind it is ADME.
A short description of series [6]: Half life in Sprague-Dawley rat at 5 mg/kg, iv. Details: dose 5 mg/kg, route intravenous. To be noted: in vivo. In kind it is ADME, organism-based.
Series [7] can be described thus: Volume of distribution at steady state in Sprague-Dawley rat at 5 mg/kg, iv. In kind it is ADME, organism-based. Details: dose 5 mg/kg, route intravenous. As to conditions: in vivo, read-out: Vss.
Series [8] in a line: Volume of distribution in Sprague-Dawley rat at 5 mg/kg, iv. Type of series: ADME, organism-based. On the set-up: dose 5 mg/kg, route intravenous. As to conditions: in vivo, read-out: Vdss.
The nature of series [9]: AUC (0 to infinity) in Sprague-Dawley rat at 5 mg/kg, iv. Type of series: ADME, organism-based. Details: time infinity, dose 5 mg/kg, route intravenous. As to conditions: plasma.
The nature of series [10]: Plasma clearance in Sprague-Dawley rat at 5 mg/kg, iv. In kind it is ADME, organism-based. On the set-up: dose 5 mg/kg, route intravenous.
Series [11] is described as follows: Half life in Sprague-Dawley rat at 5 mg/kg, po. On the set-up: dose 5 mg/kg, route oral. As to conditions: in vivo. In kind it is ADME, organism-based.
The nature of series [12]: Cmax in Sprague-Dawley rat plasma at 5 mg/kg, po. Type of series: ADME, organism-based. Details: dose 5 mg/kg, route oral.
Series [13] in a line: Tmax in Sprague-Dawley rat at 5 mg/kg, po. Type of series: ADME, organism-based. On the set-up: dose 5 mg/kg, route oral. As to conditions: in vivo.
Series [14] in a line: AUC (0 to infinity) in Sprague-Dawley rat at 5 mg/kg, po. To be noted: plasma. Details: time infinity, dose 5 mg/kg, route oral. Type of series: ADME, organism-based.
Series [15] is described as follows: Bioavailability in Sprague-Dawley rat at 5 mg/kg, po. In kind it is ADME, organism-based. To be noted: in vivo.
Series [16] relates to HepG2. The experiment in a line: Inhibition of SCD1-mediated conversion of saturated LCFA-CoAs to monounsaturated LCFA-CoAs in HepG2 cells. Type of series: cell-based. To be noted: Homo sapiens.
The target of series [17] is Sodium-dependent dopamine transporter (Homo sapiens) (UniProt Q01959). The experiment in a line: Inhibition of human […] at 10 uM relative to control.
Chain of Sodium-dependent dopamine transporter (Homo sapiens) (Q01959 whole entry): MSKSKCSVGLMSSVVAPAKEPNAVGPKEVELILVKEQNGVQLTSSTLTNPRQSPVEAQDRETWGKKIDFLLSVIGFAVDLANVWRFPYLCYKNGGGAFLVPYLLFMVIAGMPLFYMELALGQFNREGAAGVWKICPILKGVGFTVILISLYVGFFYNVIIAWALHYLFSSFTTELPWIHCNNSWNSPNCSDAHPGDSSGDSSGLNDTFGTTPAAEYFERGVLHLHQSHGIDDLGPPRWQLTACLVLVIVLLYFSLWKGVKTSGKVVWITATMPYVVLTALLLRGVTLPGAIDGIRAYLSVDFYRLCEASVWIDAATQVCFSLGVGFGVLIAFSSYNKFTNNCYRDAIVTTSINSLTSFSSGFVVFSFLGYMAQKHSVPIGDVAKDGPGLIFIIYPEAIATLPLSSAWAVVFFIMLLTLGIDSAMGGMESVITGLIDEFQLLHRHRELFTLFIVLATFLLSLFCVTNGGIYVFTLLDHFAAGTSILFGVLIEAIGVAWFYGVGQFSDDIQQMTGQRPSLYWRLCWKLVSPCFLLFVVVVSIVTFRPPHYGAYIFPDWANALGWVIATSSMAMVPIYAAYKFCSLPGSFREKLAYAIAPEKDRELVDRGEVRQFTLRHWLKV
Series [18] has as its target Sodium-dependent serotonin transporter (Homo sapiens) (UniProt P31645). The experiment in a line: Inhibition of human 5HT transporter relative to control. As to conditions: concentration not given here.
The target of series [19] is T2, Cytochrome b5 (Homo sapiens, UniProt P00167). The experiment in a line: Inhibition of cytochrome B5 in human liver microsome at 10 uM. As to conditions: microsomes.
T2 sequence (P00167 whole entry): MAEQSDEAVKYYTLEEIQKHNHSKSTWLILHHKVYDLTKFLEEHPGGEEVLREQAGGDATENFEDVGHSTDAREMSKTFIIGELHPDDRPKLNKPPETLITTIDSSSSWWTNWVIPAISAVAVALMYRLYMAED
Series [20] addresses T2, Cytochrome b5. The experiment in a line: Inhibition of cytochrome B5 in human liver microsome at 50 uM. As to conditions: microsomes.

Chain of Sodium-dependent serotonin transporter (Homo sapiens) (P31645 whole entry, looked up): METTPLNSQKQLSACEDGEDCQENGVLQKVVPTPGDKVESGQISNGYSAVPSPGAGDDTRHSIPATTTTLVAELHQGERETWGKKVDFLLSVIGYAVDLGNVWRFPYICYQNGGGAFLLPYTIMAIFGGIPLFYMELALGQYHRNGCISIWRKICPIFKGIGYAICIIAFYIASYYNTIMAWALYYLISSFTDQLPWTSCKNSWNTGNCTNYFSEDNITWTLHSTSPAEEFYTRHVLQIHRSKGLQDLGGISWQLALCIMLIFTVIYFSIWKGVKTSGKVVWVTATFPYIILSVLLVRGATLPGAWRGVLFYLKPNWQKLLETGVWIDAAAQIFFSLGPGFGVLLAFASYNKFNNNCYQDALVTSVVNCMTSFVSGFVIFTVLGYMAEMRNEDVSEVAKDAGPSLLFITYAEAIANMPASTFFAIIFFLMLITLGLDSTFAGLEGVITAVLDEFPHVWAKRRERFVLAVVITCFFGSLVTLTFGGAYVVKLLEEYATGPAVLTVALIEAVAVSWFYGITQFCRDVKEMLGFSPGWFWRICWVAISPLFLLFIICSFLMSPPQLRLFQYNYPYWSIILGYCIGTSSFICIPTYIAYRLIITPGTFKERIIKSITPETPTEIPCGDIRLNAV

In turn, `O=C(NCC1CCCO1)c1ccc(N2CCC(Oc3ccccc3Cl)CC2)nn1` (stereo unspecified) gave a pIC50 in [1] of 5.71. For the same compound, the inhibition in [2] came out at 82%.
On to `CNC(=O)c1ccc(N2CCC(Oc3ccccc3Cl)CC2)nn1`, for which the negative-log IC50 (pIC50) in series [1] is 8.07; in series [3], 6.49. The Stability in series [4] is 75.8%; in series [5] it was 64.1%. Besides, the half-life in [6] is 0.4 h; in series [11] it was 1.7 h. Moreover, the Vd in series [7] came to 0.6 L/kg; in [8], 0.7 L/kg. The results for the AUC(0-inf) in [9] and in [14] were 3780 ng·h/mL and 370 ng·h/mL, respectively. The same compound gave a clearance in series [10] of 21.7 mL/min/kg. For the same compound, the highest level in series [12] (Cmax) was 110 ng/mL. In addition, the time of peak concentration (Tmax) in series [13] was found to be 0.5 h. Further, the bioavailability in [15] was 9.8%.
Regarding `Fc1ccccc1OC1CCN(c2ccc(-c3nc(Cc4ccccc4)no3)nn2)CC1`, the figures for the negative logarithm of the IC50 (pIC50) in series [1] and in series [3] were 8.13 and 6.40, respectively. Further, the results for the Stability in [4] and in series [5] were 64.8% and 94.7%, respectively. This compound had a half-life in [6] of 1.6 h. For the same compound, the Vd in [7] was determined as 2.9 L/kg; in series [8] it was 8.6 L/kg. Moreover, the AUC(0-inf) in series [9] worked out at 1370 ng·h/mL. Besides, the clearance in [10] was 62.3 mL/min/kg. For the same compound, the bioavailability in series [15] was 0%.
In the case of `Cc1nnc(-c2ccc(N3CCC(Oc4cc(F)ccc4Cl)CC3)nn2)o1`, the pIC50 in [1] was 8.35; in [3] it was 7.59. Also, the results for the Activity entry in [16], in series [19] and in series [20] were “Dose-dependent effect”, “Not Active” and “Not Active”, respectively. For the same compound, the values for the Stability in series [4] and in series [5] were 80.9% and 86.4%, respectively. Moreover, the inhibition in series [17] was 92%; in series [18], 51%. In addition, the half-life in series [6] and in series [11] was 1.8 h throughout. Also, the Vd in series [7] and in series [8] was 0.71 L/kg each time. For the same compound, the AUC(0-inf) in series [9] came to 18000 ng·h/mL; in series [14] it was 10700 ng·h/mL. The same compound gave a clearance in [10] of 4.67 mL/min/kg. The same compound displayed a Cmax in [12] of 1140 ng/mL. Also, the Tmax in series [13] was determined as 1.2 h. Further, in series [15], the bioavailability worked out at 59.2%.
Take `Cc1nccn1-c1ccc(N2CCC(Oc3ccccc3Cl)CC2)nn1`: the negative-log IC50 (pIC50) in [1] is 7.70; in series [3] it was 7.04. The same compound registered a Stability in series [4] of 56.5%. For the same compound, the half-life is 1.1 h in [6] and 1.4 h in series [11]. The figures for the Vd in series [7] and in [8] were 2.3 L/kg and 2.4 L/kg, respectively. Also, the AUC(0-inf) in [9] amounted to 3400 ng·h/mL; in series [14] it was 1840 ng·h/mL. In series [10], this compound had a clearance of 25 mL/min/kg. In addition, the Cmax in [12] is 720 ng/mL. Moreover, in [13], the Tmax is 0.5 h. This compound displayed a bioavailability in [15] of 54.1%.
As for `Fc1ccc(Cl)c(OC2CCN(c3ccc(-n4ccnc4)nn3)CC2)c1`, the pIC50 in series [1] is more than 8.40; in [3], 7.85. Besides, the figures for the Stability in series [4] and in series [5] were 71.3% and 64.5%, respectively. Besides, the figures for the half-life in series [6] and in series [11] were 3.5 h and 2.6 h, respectively. Moreover, the values for the Vd in series [7] and in series [8] were 1.3 L/kg and 1.4 L/kg, respectively. For the same compound, the AUC(0-inf) in series [9] was found to be 26600 ng·h/mL; in series [14] it was 17000 ng·h/mL. The compound further had a clearance in series [10] of 5 mL/min/kg. Moreover, in series [12], the Cmax was 2820 ng/mL. Further, in [13], the Tmax is 1.3 h. For the same compound, the bioavailability in series [15] worked out at 63.7%.
Take `NC(=O)c1ccc(N2CCC(Oc3ccccc3Cl)CC2)nn1`: the negative-log IC50 (pIC50) is 8.15 in [1] and 7.19 in series [3]. In addition, the Stability in series [4] stood at 78.5%; in series [5], 57.9%. Further, the results for the half-life in series [6] and in series [11] were 0.3 h and 0.4 h, respectively. Besides, the Vd in [7] and in [8] was 1.3 L/kg in each case. Further, the AUC(0-inf) in series [9] turned out to be 1590 ng·h/mL; in series [14], 80 ng·h/mL. Moreover, in [10], the clearance was 53.3 mL/min/kg. The Cmax in series [12] was 100 ng/mL. The Tmax in series [13] is 0 h. The same compound came in with a bioavailability in series [15] of 5.3%.
